Experimental data published in the NIST ThermoML archive (doi:10.1016/j.fluid.2018.04.025).

Columns and labels:
[1] = xn = mol fraction of the nth substance listed; settings: 101 kPa, Liquid, x2 = 0; for viscosity: Falling or rolling sphere viscometry; for speed of sound: Frequency=3 MHz, Sing-around technique in a fixed-path interferometer; for mass density: Vibrating tube method
[2] = 101.3 kPa, Liquid; for viscosity: Falling or rolling sphere viscometry; for speed of sound: Frequency=3 MHz, Sing-around technique in a fixed-path interferometer; for mass density: Vibrating tube method

CCCO [propan-1-ol] + CCCC[n+]1ccn(C)c1.O=S(=O)([N-]S(=O)(=O)C(F)(F)F)C(F)(F)F
[1]
Settings | mass density [kg/m3] | speed of sound [m/s] | viscosity [mPa·s]
298.15 K | 799.924 | 1206.6 | 1.89
303.15 K | 795.888 | 1189.5 | 1.69
308.15 K | 791.815 | 1172.5 | 1.51
313.15 K | 787.7 | 1155.6 | 1.35
318.15 K | 783.538 | 1138.8 | 1.22
323.15 K | 779.321 | 1122 | 1.09

CCCCO [butan-1-ol] + CCCC[n+]1ccn(C)c1.O=S(=O)([N-]S(=O)(=O)C(F)(F)F)C(F)(F)F
[1]
Settings | mass density [kg/m3] | speed of sound [m/s] | viscosity [mPa·s]
298.15 K | 806.704 | 1242.4 | 2.57
303.15 K | 802.704 | 1225.5 | 2.26
308.15 K | 798.992 | 1208.7 | 1.99
313.15 K | 795.065 | 1192 | 1.77
318.15 K | 791.094 | 1175.4 | 1.58
323.15 K | 787.075 | 1158.8 | 1.41

CCCC[n+]1ccn(C)c1.O=S(=O)([N-]S(=O)(=O)C(F)(F)F)C(F)(F)F
[2]
Settings | mass density [kg/m3] | speed of sound [m/s] | viscosity [mPa·s]
298.15 K | 1436.02 | 1227.3 | 51.15
303.15 K | 1431.22 | 1216.3 | 41.88
308.15 K | 1426.43 | 1205.5 | 34.58
313.15 K | 1421.64 | 1194.7 | 28.98
318.15 K | 1416.84 | 1184 | 24.6
323.15 K | 1411.89 | 1173.5 | 21.1
